In patent US20110166191A1, “3-(2-amino-ethyl)-5-(3-cyclohexyl-propylidene)-thiazolidine-2,4-dione and its derivatives as multiple signaling pathway inhibitors and for the treatment of cancer” (priority 2010, published 2011):

Key:
Assay in all cases: In vitro kinase screening
Type in all cases: biochemical
[1] = target: T1, CDK2 (Homo sapiens, UniProt P24941); conditions: CDK2, 10 μM concentration
T1 construct: Caliper Life Sciences (screening service)
Description: (§1) Formula II [3-(2-aminoethyl)-5-(3-cyclohexylpropylidene)thiazolidine-2,4-dione] was screened against a panel of kinases at 10 μM concentration by Caliper Life Sciences according to their established protocol.

[2] = target: T2, PKGa (Homo sapiens, UniProt Q13976); conditions: 10 μM concentration
T2 construct: Caliper Life Sciences
Description: as §1

[3] = target: T3, LCK (Homo sapiens, UniProt P06239); conditions: 10 μM concentration
T3 construct: Caliper Life Sciences
Description: as §1

[4] = target: T4, ABL (Homo sapiens, UniProt P00519); conditions: 10 μM concentration
T4 construct: Caliper Life Sciences (screening service)
Description: as §1

[5] = target: T5, SGK1 (Homo sapiens, UniProt O00141); conditions: SGK1, 10 μM concentration
T5 construct: Caliper Life Sciences
Description: as §1

[6] = target: T6, PAK2 (Homo sapiens, UniProt Q13177); conditions: PAK2, 10 μM concentration
T6 construct: Caliper Life Sciences
Description: as §1

[7] = target: T7, PKCb2 (Homo sapiens, UniProt P05771); conditions: PKCb2, 10 μM concentration
T7 construct: Caliper Life Sciences
Description: as §1

[8] = tested on: CAMK2; conditions: CAMK2, 10 μM concentration
Description: as §1

[9] = target: T8, c-TAK1 (Homo sapiens, UniProt P27448); conditions: c-TAK1, 10 μM concentration
T8 construct: Caliper Life Sciences (screening service)
Description: as §1

[10] = target: T9, MEK1 (Homo sapiens, UniProt Q02750); conditions: MEK1, 10 μM concentration
T9 construct: Caliper Life Sciences
Description: as §1

[11] = target: T10, MET (Homo sapiens, UniProt P08581); conditions: 10 μM concentration
T10 construct: Caliper Life Sciences
Description: as §1

[12] = target: T11, PKA (Homo sapiens, UniProt P17612); conditions: 10 μM concentration
T11 construct: Caliper Life Sciences
Description: as §1

[13] = target: T12, PI3Ka (Homo sapiens, UniProt P42336); conditions: 10 μM concentration
T12 construct: Caliper Life Sciences
Description: as §1

[14] = target: T13, CHK1 (Homo sapiens, UniProt O14757); conditions: CHK1, 10 μM concentration
T13 construct: Caliper Life Sciences (screening service)
Description: as §1

[15] = target: T14, MSK1 (Homo sapiens, UniProt O75582); conditions: MSK1, 10 μM concentration
T14 construct: Caliper Life Sciences
Description: as §1

[16] = target: T15, MAPKAPK2 (Homo sapiens, UniProt P49137); conditions: MAPKAPK2, 10 μM concentration
T15 construct: Caliper Life Sciences
Description: as §1

[17] = target: T16, HGK (Homo sapiens, UniProt O95819); conditions: 10 μM concentration
T16 construct: Caliper Life Sciences (screening service)
Description: as §1

[18] = target: T17, ROCK2 (Homo sapiens, UniProt O75116); conditions: ROCK2, 10 μM concentration
T17 construct: Caliper Life Sciences
Description: as §1

[19] = target: T18, FYN (Homo sapiens, UniProt P06241); conditions: 10 μM concentration
T18 construct: Caliper Life Sciences (screening service)
Description: as §1

[20] = target: T19, CHK2 (Homo sapiens, UniProt O96017); conditions: CHK2, 10 μM concentration
T19 construct: Caliper Life Sciences (screening service)
Description: as §1

[21] = target: T20, AurA (Homo sapiens, UniProt O14965); conditions: 10 μM concentration
T20 construct: Caliper Life Sciences (screening service)
Description: as §1

[22] = target: T21, PIM2 (Homo sapiens, UniProt Q9P1W9); conditions: PIM2, 10 μM concentration
T21 construct: Caliper Life Sciences
Description: as §1

[23] = target: T22, LYN (Homo sapiens, UniProt P07948); conditions: 10 μM concentration
T22 construct: Caliper Life Sciences
Description: as §1

[24] = target: T23, MARK1 (Homo sapiens, UniProt Q9P0L2); conditions: MARK1, 10 μM concentration
T23 construct: Caliper Life Sciences
Description: as §1

[25] = target: T24, MST2 (Homo sapiens, UniProt Q13188); conditions: MST2, 10 μM concentration
T24 construct: Caliper Life Sciences
Description: as §1

[26] = target: T25, SRC (Homo sapiens, UniProt P12931); conditions: 10 μM concentration
T25 construct: purchased Caliper Life Sciences
Description: as §1

[27] = target: T26, BTK (Homo sapiens, UniProt Q06187); conditions: 10 μM concentration
T26 construct: Caliper Life Sciences (screening service)
Description: as §1

[28] = target: T27, p38a (Homo sapiens, UniProt Q16539); conditions: 10 μM concentration
T27 construct: Caliper Life Sciences
Description: as §1

[29] = target: T28, GSK3b (Homo sapiens, UniProt P49841); conditions: 10 μM concentration
T28 construct: Caliper Life Sciences (screening service)
Description: as §1

[30] = target: T29, MEK2 (Homo sapiens, UniProt P36507); conditions: MEK2, 10 μM concentration
T29 construct: Caliper Life Sciences
Description: as §1

[31] = target: T30, IGF1R (Homo sapiens, UniProt P08069); conditions: 10 μM concentration
T30 construct: Caliper Life Sciences (screening service)
Description: as §1

[32] = target: T31, p70S6K (Homo sapiens, UniProt P23443); conditions: 10 μM concentration
T31 construct: Caliper Life Sciences
Description: as §1

[33] = target: T32, FGFR1 (Homo sapiens, UniProt P11362); conditions: FGFR1, 10 μM concentration
T32 construct: Caliper Life Sciences (screening service)
Description: as §1

[34] = target: T33, PKD2 (Homo sapiens, UniProt Q9BZL6); conditions: PKD2, 10 μM concentration
T33 construct: Caliper Life Sciences
Description: as §1

[35] = target: T34, PKCz (Homo sapiens, UniProt Q05513); conditions: 10 μM concentration
T34 construct: Caliper Life Sciences
Description: as §1

[36] = tested on: AMPK; conditions: 10 μM concentration
Description: as §1

[37] = target: T35, FLT3 (Homo sapiens, UniProt P36888); conditions: FLT3, 10 μM concentration
T35 construct: Caliper Life Sciences (screening service)
Description: as §1

[38] = target: T36, SYK (Homo sapiens, UniProt P43405); conditions: 10 μM concentration
T36 construct: purchased Caliper Life Sciences
Description: as §1

T17 sequence (O75116 whole entry, species assumed): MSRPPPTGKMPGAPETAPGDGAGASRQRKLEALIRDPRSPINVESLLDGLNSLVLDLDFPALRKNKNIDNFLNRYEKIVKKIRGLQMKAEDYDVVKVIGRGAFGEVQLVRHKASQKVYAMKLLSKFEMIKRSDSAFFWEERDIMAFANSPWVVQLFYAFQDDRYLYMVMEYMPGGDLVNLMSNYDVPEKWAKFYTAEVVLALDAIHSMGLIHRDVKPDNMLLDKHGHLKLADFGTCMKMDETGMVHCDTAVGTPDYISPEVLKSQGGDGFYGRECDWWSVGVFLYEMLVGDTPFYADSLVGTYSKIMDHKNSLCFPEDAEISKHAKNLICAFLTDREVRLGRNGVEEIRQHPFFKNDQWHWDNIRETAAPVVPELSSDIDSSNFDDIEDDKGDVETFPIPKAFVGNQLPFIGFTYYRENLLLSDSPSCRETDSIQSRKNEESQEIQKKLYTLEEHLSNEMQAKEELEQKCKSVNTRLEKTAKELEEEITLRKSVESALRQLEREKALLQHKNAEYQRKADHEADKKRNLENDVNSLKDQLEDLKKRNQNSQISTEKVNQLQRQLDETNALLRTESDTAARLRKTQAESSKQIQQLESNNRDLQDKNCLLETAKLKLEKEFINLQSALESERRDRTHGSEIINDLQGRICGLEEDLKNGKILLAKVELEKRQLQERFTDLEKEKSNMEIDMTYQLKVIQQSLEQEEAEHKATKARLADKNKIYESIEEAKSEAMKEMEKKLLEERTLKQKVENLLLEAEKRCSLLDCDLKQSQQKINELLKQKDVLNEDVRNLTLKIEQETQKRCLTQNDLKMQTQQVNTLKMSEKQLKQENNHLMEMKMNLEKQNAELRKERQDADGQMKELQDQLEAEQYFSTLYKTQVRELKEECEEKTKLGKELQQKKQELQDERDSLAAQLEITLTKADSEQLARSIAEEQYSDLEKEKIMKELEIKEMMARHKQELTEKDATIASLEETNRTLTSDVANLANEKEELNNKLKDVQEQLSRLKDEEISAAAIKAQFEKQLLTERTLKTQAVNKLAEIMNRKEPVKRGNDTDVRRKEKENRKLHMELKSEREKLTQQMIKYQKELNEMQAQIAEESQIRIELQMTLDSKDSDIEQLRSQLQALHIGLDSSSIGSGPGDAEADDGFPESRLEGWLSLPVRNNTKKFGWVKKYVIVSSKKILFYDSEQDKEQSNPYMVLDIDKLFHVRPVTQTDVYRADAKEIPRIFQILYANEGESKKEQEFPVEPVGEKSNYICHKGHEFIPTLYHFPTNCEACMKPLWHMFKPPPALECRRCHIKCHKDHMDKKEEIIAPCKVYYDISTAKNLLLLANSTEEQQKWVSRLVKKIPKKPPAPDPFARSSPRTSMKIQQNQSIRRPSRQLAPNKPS
T2 sequence (Q13976 whole entry): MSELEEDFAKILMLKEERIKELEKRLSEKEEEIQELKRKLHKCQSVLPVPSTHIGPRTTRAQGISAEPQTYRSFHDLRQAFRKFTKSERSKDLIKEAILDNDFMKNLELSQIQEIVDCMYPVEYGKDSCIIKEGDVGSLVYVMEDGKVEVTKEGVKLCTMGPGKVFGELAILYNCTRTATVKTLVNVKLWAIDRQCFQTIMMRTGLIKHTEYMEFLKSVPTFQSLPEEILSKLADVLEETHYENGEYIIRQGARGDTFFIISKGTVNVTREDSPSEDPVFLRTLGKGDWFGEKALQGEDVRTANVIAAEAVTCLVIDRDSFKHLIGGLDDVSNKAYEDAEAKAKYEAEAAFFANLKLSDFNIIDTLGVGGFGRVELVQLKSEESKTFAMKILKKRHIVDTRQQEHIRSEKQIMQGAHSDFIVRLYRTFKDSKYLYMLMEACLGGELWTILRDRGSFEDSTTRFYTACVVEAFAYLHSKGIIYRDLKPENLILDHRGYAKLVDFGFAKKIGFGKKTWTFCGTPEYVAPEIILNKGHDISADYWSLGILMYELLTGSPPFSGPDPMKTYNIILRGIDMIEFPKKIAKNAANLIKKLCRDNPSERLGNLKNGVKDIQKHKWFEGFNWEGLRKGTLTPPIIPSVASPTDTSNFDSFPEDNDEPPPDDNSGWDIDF
T21 sequence (Q9P1W9 whole entry, species assumed): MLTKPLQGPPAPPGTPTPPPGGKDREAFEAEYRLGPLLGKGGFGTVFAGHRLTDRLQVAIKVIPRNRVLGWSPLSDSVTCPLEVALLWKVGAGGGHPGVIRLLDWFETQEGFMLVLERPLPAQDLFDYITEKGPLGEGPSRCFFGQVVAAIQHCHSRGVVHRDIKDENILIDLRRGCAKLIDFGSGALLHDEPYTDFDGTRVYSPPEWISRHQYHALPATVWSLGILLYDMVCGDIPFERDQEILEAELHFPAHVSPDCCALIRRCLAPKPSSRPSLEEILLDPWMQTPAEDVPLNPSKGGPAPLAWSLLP
T29 sequence (P36507 whole entry, species assumed): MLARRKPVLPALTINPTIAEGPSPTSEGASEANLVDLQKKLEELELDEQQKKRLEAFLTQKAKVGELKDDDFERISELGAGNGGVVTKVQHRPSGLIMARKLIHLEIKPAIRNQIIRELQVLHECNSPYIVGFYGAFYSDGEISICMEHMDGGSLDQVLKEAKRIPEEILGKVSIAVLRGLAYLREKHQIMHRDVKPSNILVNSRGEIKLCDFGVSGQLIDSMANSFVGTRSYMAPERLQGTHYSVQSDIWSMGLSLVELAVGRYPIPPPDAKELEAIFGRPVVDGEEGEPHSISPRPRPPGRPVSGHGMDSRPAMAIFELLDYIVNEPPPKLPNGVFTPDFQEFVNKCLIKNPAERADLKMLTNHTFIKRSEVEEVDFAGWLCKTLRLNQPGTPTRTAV
T30 sequence (P08069 31-1367): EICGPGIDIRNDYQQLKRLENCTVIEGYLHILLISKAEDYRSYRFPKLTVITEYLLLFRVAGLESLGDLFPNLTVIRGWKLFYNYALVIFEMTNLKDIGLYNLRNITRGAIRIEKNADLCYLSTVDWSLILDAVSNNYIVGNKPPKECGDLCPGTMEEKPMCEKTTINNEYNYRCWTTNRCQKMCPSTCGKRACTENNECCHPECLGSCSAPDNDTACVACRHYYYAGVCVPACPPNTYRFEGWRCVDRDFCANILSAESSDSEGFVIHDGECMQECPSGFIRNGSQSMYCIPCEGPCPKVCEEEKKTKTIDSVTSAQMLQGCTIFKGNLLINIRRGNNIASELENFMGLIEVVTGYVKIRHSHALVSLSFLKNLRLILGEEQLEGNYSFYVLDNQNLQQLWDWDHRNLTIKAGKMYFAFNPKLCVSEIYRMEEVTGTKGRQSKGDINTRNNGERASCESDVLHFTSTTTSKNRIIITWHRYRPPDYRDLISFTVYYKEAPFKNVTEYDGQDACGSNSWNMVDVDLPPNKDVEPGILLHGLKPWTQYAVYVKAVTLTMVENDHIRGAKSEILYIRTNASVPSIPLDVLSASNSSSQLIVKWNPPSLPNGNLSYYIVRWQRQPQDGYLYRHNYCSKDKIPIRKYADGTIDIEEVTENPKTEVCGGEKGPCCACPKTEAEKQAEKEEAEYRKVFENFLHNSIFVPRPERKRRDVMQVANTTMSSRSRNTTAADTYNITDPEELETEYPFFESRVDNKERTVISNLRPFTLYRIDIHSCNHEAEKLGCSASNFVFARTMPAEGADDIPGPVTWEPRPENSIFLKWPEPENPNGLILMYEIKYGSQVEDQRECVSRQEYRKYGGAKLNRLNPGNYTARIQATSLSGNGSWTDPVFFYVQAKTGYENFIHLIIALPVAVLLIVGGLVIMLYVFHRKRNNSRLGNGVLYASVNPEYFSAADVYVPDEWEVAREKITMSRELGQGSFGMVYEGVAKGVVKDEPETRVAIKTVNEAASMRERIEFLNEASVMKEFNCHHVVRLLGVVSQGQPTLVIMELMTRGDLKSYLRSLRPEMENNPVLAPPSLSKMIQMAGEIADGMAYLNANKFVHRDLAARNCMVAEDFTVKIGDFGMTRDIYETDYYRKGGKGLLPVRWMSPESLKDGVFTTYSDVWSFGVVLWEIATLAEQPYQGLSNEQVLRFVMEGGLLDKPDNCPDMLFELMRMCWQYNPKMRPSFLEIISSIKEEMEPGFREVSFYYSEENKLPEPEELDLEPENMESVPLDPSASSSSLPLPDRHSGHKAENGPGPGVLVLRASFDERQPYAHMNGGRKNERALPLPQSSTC
T15 sequence (P49137 whole entry, species assumed): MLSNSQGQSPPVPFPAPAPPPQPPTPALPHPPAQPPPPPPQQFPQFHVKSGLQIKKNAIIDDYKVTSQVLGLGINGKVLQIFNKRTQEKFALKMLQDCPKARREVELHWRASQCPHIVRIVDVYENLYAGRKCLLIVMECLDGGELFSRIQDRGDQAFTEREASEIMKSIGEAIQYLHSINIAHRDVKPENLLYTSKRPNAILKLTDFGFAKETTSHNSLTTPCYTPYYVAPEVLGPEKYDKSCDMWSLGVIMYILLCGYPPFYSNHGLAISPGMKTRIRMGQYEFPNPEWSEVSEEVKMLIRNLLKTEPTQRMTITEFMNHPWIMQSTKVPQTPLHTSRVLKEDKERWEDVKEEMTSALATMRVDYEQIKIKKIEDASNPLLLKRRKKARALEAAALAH
T9 sequence (Q02750 whole entry, species assumed): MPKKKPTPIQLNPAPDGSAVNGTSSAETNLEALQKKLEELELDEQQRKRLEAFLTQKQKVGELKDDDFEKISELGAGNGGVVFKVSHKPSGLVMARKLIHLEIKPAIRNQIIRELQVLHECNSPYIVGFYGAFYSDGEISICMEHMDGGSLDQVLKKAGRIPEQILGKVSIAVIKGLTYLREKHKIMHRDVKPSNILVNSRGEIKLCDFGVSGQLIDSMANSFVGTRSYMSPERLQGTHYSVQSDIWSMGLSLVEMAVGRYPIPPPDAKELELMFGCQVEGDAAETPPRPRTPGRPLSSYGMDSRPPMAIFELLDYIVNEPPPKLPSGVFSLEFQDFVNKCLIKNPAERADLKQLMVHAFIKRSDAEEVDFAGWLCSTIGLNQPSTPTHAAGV

NCCN1C(=O)S/C(=C\CCC2CCCCC2)C1=O [Example 4, 3-(2-aminoethyl)-5-(3-cyclohexylpropylidene)thiazolidine-2,4-dione]
inhibition at 10 µM [1]: -2%
inhibition at 10 µM [2]: -2%
inhibition at 10 µM [3]: 4%
inhibition at 10 µM [4]: 6%
inhibition at 10 µM [5]: 14%
inhibition at 10 µM [6]: 10%
inhibition at 10 µM [7]: 16%
% Inhibition [8]: 60%
inhibition at 10 µM [9]: 6%
inhibition at 10 µM [10]: 69%
inhibition at 10 µM [11]: -1%
inhibition at 10 µM [12]: -3%
inhibition at 10 µM [13]: 45%
inhibition at 10 µM [14]: 11%
inhibition at 10 µM [15]: 6%
inhibition at 10 µM [16]: 3%
inhibition at 10 µM [17]: -1%
inhibition at 10 µM [18]: -1%
inhibition at 10 µM [19]: 0%
inhibition at 10 µM [20]: 8%
inhibition at 10 µM [21]: -4%
inhibition at 10 µM [22]: 38%
inhibition at 10 µM [23]: 0%
inhibition at 10 µM [24]: 0%
inhibition at 10 µM [25]: -3%
inhibition at 10 µM [26]: 2%
inhibition at 10 µM [27]: 12%
inhibition at 10 µM [28]: -13%
inhibition at 10 µM [29]: 0%
inhibition at 10 µM [30]: 27%
inhibition at 10 µM [31]: -1%
inhibition at 10 µM [32]: 5%
inhibition at 10 µM [33]: 3%
inhibition at 10 µM [34]: 0%
inhibition at 10 µM [35]: -8%
% Inhibition [36]: 76%
inhibition at 10 µM [37]: 38%
inhibition at 10 µM [38]: 9%
